Each structure is given as a SMILES string. Calls of active or inactive are those of the source. The rule behind the calls is not given here.

The experiment deals with Chaperone protein DnaK (Escherichia coli (strain K12)) (UniProt P0A6Y8). Briefly: binders of DnaK substrate-binding domain, biophysical, NMR, chaperone (AID 1033). The settings on record: Purified DnaK SBD, NMR ligand binding.
Chaperone protein DnaK (Escherichia coli (strain K12)), sequence (P0A6Y8 whole entry, looked up, the tested form may be a part): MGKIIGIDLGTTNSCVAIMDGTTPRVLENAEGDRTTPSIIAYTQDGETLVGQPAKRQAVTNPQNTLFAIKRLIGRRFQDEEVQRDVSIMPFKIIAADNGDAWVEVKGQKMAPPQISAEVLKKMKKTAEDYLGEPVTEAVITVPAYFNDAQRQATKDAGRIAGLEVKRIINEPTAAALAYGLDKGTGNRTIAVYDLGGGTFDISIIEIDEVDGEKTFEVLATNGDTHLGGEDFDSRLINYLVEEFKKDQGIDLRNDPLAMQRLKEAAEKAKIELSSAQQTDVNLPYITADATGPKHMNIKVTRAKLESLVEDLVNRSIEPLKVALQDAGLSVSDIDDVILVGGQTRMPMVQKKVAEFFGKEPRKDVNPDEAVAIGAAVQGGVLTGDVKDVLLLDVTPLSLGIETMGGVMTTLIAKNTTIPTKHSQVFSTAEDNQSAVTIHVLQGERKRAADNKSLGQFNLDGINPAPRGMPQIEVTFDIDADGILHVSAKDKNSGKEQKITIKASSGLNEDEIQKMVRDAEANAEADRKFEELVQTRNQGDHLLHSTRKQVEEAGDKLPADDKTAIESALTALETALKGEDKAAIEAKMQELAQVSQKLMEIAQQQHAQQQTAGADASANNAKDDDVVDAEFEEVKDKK
In the case of `CC1(C)C2CC(=O)[C@]3(C)C(CC[C@@]4(C)[C@H](c5ccoc5)OC(=O)[C@H]5O[C@]543)[C@@]2(C)C(=O)C[C@H]1O` (some centres undefined), the Kd is > 4 mM (inactive). Next, `O=C(CSc1ccnc(=O)[nH]1)NCc1ccccc1`: > 4 mM (inactive); `Cc1nn(-c2ccccc2)nc1C(N)=O`: > 4 mM (inactive); `O=C1C=CC(=O)c2c(O)cccc21`: > 4 mM (inactive). Turning to `Cc1c(/C=N/O)cnn1C`, the Kd is > 4 mM (inactive). In the case of `CC(=O)Nc1ccc(NC2SC(=O)NC2=O)cc1` (centres undefined) it was > 4 mM (inactive). As to `Cc1cccc(N2C(=O)CC(=O)NC2=O)c1`, the Kd is > 4 mM (inactive). `O=C(Nc1ccc(-c2nnco2)cc1)c1ccccc1`: the Kd is > 4 mM (inactive). Take `O=C(O)c1ccc2c(c1)CCO2`: the Kd was > 4 mM (inactive).

As to `CN1CCn2c1nc(N1CCOCC1)nc2=O`, the Kd was > 4 mM (inactive). Next, `c1ccc(-c2noc(-c3ccco3)n2)nc1`: > 4 mM (inactive); `CSc1nc(O)cc(=O)[nH]1`: > 4 mM (inactive).

Take `COC(=O)c1c(OC)cc2c(c1C)Oc1c(Cl)c(OC(C)=O)c(Cl)c(C)c1C(=O)O2`: the Kd is > 4 mM (inactive). In the case of `O=C1NC(=O)/C(=C\c2ccco2)S1` it was > 4 mM (inactive); in that of `O=C1NC(=O)/C(=C/c2ccc(O)cc2)N1`, > 4 mM (inactive); in that of `O=C1C2C3C=CC(C3)C2C(=O)N1c1cccnc1` (centres undefined), > 4 mM (inactive). Next, `Cc1nc2ccccc2c(=O)n1NC(=O)C1CCCCC1`: > 4 mM (inactive); `COc1ccc(Cc2nccc3cc(OC)c(OC)cc23)cc1OC`: > 4 mM (inactive); `O=C(Cc1c(F)cccc1Cl)Nc1cccnc1`: > 4 mM (inactive). Next, `CNC(=S)NCCN1CCOCC1`: > 4 mM (inactive); `Nc1ccccc1OC(F)(F)F`: > 4 mM (inactive). For the molecule `CC(=O)c1ccc(CC2SC(N)=NC2=O)cc1` (centres undefined), the Kd is > 4 mM (inactive). On to `CC1(C)C(=O)C=C[C@@]2(C)C1CC(=O)[C@]1(C)C2CC[C@@]2(C)[C@H](c3ccoc3)OC(=O)[C@H]3O[C@]321` (some centres undefined), for which the Kd was > 4 mM (inactive).

Take `Nc1cc(F)ccc1-n1ccnc1`: the Kd was > 4 mM (inactive). As to `CC(=O)O[C@H]1CCC2(C)C3=C(CCC2C1(C)C)[C@@]1(C)CC[C@@H](C(C)CCC=C(C)C)[C@]1(C)CC3` (some centres undefined), the Kd is > 4 mM (inactive). For the molecule `CCOC(=O)Nc1ccc2c(C)cc(=O)oc2c1`, the Kd was > 4 mM (inactive). In the case of `Cn1c(=O)c2[nH]cnc2n(C)c1=O` it was > 4 mM (inactive). `NC(=O)C1CCN(c2ncnc(N)c2[N+](=O)[O-])CC1`: the Kd was > 4 mM (inactive). For `COc1ccc(S(=O)(=O)N2CCOCC2)cc1C(C)C`, the Kd was > 4 mM (inactive).

Take `COc1ccc(-c2noc(-c3ccco3)n2)cc1OC`: the Kd was > 4 mM (inactive). In the case of `Cn1ccc(C(=O)NC(=S)NN2CCOCC2)n1` it was > 4 mM (inactive); in that of `Cc1cc(=O)[nH]c2ccccc12`, > 4 mM (inactive); in that of `Cc1cc(O)c(C)c(O)c1C(=O)O`, > 4 mM (inactive).

`Cc1nc2ccccc2c(=O)n1NC(=O)Nc1ccccc1`: the Kd is > 4 mM (inactive). Take `Cc1cc(C(=O)NC2=NCCS2)cs1`: the Kd is > 4 mM (inactive). In the case of `COc1ccccc1NC(=O)c1snnc1C` it was > 4 mM (inactive). With `Cc1nn(C)c(Cl)c1C(O)c1c(C)nn(C)c1Cl`, the Kd is > 4 mM (inactive). Consider `CN1CCc2c(sc(N)c2C#N)C1`, for which the Kd was > 4 mM (inactive).

Take `Cc1c(C(=O)N2CCOCC2)oc2c1C(=O)CC(C)(C)C2`: the Kd was > 4 mM (inactive). In the case of `Nc1nc2c3ccccc3nc(Cc3ccccc3)n2n1` it was > 4 mM (inactive).

On to `NC(=O)CCS(=O)(=O)CCN1CCOCC1`, for which the Kd is > 4 mM (inactive). In the case of `Cc1ccc(C)c(C(=O)NCc2ccncc2)c1`, the Kd is > 4 mM (inactive). With `CCOCC(=O)N1CCc2ccccc21`, the Kd was > 4 mM (inactive). In the case of `OCC1Cc2ccccc2CN1` (centres undefined), the Kd was > 4 mM (inactive). Turning to `O=C(O)C1=C[C@@H](O)[C@@H](O)[C@H](O)C1`, the Kd was > 4 mM (inactive). Take `O=C(NCc1ccccc1Br)c1ccco1`: the Kd is > 4 mM (inactive).

As for `C=CCSCC=C`, the Kd was > 4 mM (inactive). Next, `CC(C)=CCc1c(O)cc2occ(-c3ccc4c(c3)OCO4)c(=O)c2c1O`: > 4 mM (inactive); `CC1=CC(=O)C2C(C)(C)CCC[C@]2(C)[C@@]1(O)CCc1ccoc1` (some centres undefined): > 4 mM (inactive). Consider `CC1(C)CN=C(Nc2nc3ccccc3s2)S1`, for which the Kd was > 4 mM (inactive). Next, `C[C@H]1C(=O)CCC2[C@]3(C)CC[C@@]4(C)C5CC(C)(C)CC[C@]5(C)CC[C@]4(C)C3CC[C@@]21C` (some centres undefined): > 4 mM (inactive); `CNC(=O)c1cc2cccc(OC)c2oc1=O`: > 4 mM (inactive). Next, `O=C1CC[C@]23/C=C/C(=O)NCCCCNCCCNC(=O)/C=C/c4ccc(c2c4)O[C@@H]3C1`: > 4 mM (inactive). With `NC(=O)CC1Nc2cccc3cccc(c23)NC1=O` (centres undefined), the Kd was > 4 mM (inactive). In the case of `O=c1[nH]cc(NCc2ccco2)c(=O)[nH]1` it was > 4 mM (inactive). As for `COc1ccc(N/C(N)=N\c2nc(C)cc(C)n2)cc1`, the Kd was > 4 mM (inactive). Consider `O=C1C2CC=CCC2C(=O)N1c1ccccc1` (centres undefined), for which the Kd is > 4 mM (inactive). In the case of `Cc1nnc(SCc2ccccc2)[nH]c1=O` it was > 4 mM (inactive).

For the molecule `Clc1ccc(-c2nnc3ccccn23)cc1`, the Kd is > 4 mM (inactive). Next, `Cn1ncc(SCc2ccco2)c(Cl)c1=O`: > 4 mM (inactive); `O=C(Nc1ccc2c(c1)OCCO2)c1ccncc1`: > 4 mM (inactive). `Cn1c(CO)nc2cc(N)ccc21`: the Kd is > 4 mM (inactive). In the case of `O=C(O)c1sccc1-n1cccc1`, the Kd was > 4 mM (inactive). Next, `COc1ccc(NC2=NCC(C)S2)cc1` (centres undefined): > 4 mM (inactive); `O=C(NCc1ccccn1)c1ccc(Cl)cc1Cl`: > 4 mM (inactive).

Regarding `CC(C)(C#N)O[C@@H]1O[C@H](CO)[C@@H](O)[C@H](O)[C@H]1O`, the Kd was > 4 mM (inactive). In the case of `CCC(C)C(=O)c1c(O)c(C)c2oc3c(C)c(O)c(C(=O)C(C)CC)c(O)c3c2c1O` (centres undefined) it was > 4 mM (inactive); in that of `Cc1c(CCO)c(=O)n2c([nH]c3ccccc32)c1C#N`, > 4 mM (inactive); in that of `Cc1oc(-c2ccccc2)cc1C(N)=O`, > 4 mM (inactive).

Turning to `CC(C)=CCC[C@](C)(O)C1CC=C(C)CC1` (some centres undefined), the Kd is > 4 mM (inactive).

`O=C(Nc1ccccc1N1CCCC1)c1cccnc1`: the Kd is > 4 mM (inactive). In the case of `O=C(O)c1ccc(-n2cccn2)cc1` it was > 4 mM (inactive).

Regarding `CC(=O)C1CCC2C3CCC4C[C@H](O)CCC4(C)C3C[C@H](O)C12C` (some centres undefined), the Kd is > 4 mM (inactive). `COCc1cc(Cl)nc(-c2csc(C)n2)n1`: the Kd is > 4 mM (inactive). In the case of `Nc1ccc(N2CCCCC2)cc1` it was > 4 mM (inactive). Next, `O=C(O)CCCN1CNC(=S)NC1`: > 4 mM (inactive); `O=C(O)c1cccnc1N1CCOCC1`: > 4 mM (inactive). In the case of `Cc1cccc(-n2c(N)cc(=O)[nH]c2=S)c1`, the Kd was > 4 mM (inactive). In the case of `COc1ccc(C2NC(C(=O)O)CS2)cc1` (centres undefined) it was > 4 mM (inactive); in that of `COc1c(F)c(F)c(-c2csc(N)n2)c(F)c1F`, > 4 mM (inactive); in that of `O=C(O)c1cn(-c2ccccc2)nc1-c1cccnc1`, > 4 mM (inactive). Next, `CC(=O)c1cccc(NC(=O)NN2CCOCC2)c1`: > 4 mM (inactive). Next, `NS(=O)(=O)c1ccc(NC(=S)NC2CC2)cc1`: > 4 mM (inactive); `Cc1[nH]ccc2c1[nH]c1cc(=O)ccc12`: > 4 mM (inactive); `Nc1nc2ccc(C(=O)O)cc2s1`: > 4 mM (inactive). Consider `O=C1CSC(=O)N1CNc1ccccc1`, for which the Kd is > 4 mM (inactive).

As for `O=C1CSC(=S)N1N1C(=O)C2C3C=CC(C3)C2C1=O` (centres undefined), the Kd is > 4 mM (inactive). Next, `CC(O)c1ccc(C(C)O)cc1` (centres undefined): > 4 mM (inactive). Next, `OCC1COc2ccccc2C1` (centres undefined): > 4 mM (inactive); `COC(=O)c1cnccc1C(F)(F)F`: > 4 mM (inactive). Take `O=C(O)c1ccccc1N1CCOCC1`: the Kd was > 4 mM (inactive).

Regarding `Cc1noc(C)c1C(=O)Nc1ccccc1-c1ccccc1`, the Kd is > 4 mM (inactive). Next, `CC(=O)Nc1cccc(-c2nnc(-c3ccccc3)o2)c1`: > 4 mM (inactive).

Turning to `NC1=NC(=O)/C(=C\c2cccc(C(=O)O)c2)S1`, the Kd is > 4 mM (inactive). In the case of `Cc1cc(O)c2c(c1)C(=O)c1cccc(O)c1C2=O` it was > 4 mM (inactive); in that of `CC(=O)c1ccc(NC(=O)c2ocnc2C)cc1`, > 4 mM (inactive).

Turning to `CS(=O)(=O)N1CCN(C(=O)c2ccccc2)CC1`, the Kd was > 4 mM (inactive). In the case of `CC12CCC3C(CC3(C)C)C(C)(CCC1=O)O2` (centres undefined) it was > 4 mM (inactive). For the molecule `NC(=O)Cn1nc(-c2ccco2)ccc1=O`, the Kd is > 4 mM (inactive). As to `CC(C)CC(=O)Nc1c[nH]c(=O)[nH]c1=O`, the Kd is > 4 mM (inactive). Next, `Cn1nc(-c2cccs2)cc1N`: > 4 mM (inactive). In the case of `C[C@H]1[C@H]2CCC3C4CC=C5C[C@@H](N(C)C)CC[C@]5(C)C4CC[C@@]32CN1C` (some centres undefined), the Kd is > 4 mM (inactive). Next, `O=C(Nc1nccs1)c1cccnc1`: > 4 mM (inactive); `CS(=O)(=O)Nc1ccccc1C(=O)c1ccccc1`: > 4 mM (inactive).

For the origin of these results see PubChem BioAssay AID1033 (Sanford-Burnham Center for Chemical Genomics, 2008).
